Source: patent EP4032543A1, “PEPTIDES FROM THE SEQUENCE OF THE COMPLEMENT FACTOR D FOR MEDICAL USE, ESPECIALLY FOR THE TREATMENT OF EBV-ASSOCIATED DISEASES” (Fraunhofer-Gesellschaft zur Förderung der angewandten …, priority 2021, dated 2022)

Tested on: latently EBV-infected Raji-reporter cells
Assay: Induction of lytic EBV-infection after proviral treatment (expression of ZEBRA)
Type: cell-based
Details: EBV-positive Raji-reporter cells, 24 hours induction, related to untreated control; PMA at 20 ng/ml; Figure 1
Description: The relative induction of the EBV lytic cycle in latently EBV-infected Raji-reporter cells was tested using the human peptide mixture comprising the two complement factor D derived peptide sequences SEQ ID No. 3 and SEQ ID No. 4 (CFD+ peptide mixture) in comparison to the known exogenous proviral substance phorbol-12-myristate13-acetate (PMA), each related to the untreated control. The EBV-positive Raji-reporter cells were treated with the human peptide mixture or with the 20 ng/ml PMA. In a control, cells were not treated with a proviral substance. After 24 hours induction the lytic EBV-infection was compared between treated and non-treated cells via expression of the lytic EBV-immediate early protein ZEBRA. […] Without being bound to the theory, it can be assumed that the pure peptides will result in an even better induction.

SMILES: CCCCCCCCCCCCCC(=O)O[C@@H]1[C@@H](C)[C@@]2(O)[C@@H](C=C(CO)C[C@]3(O)C(=O)C(C)=C[C@@H]23)[C@@H]2C(C)(C)[C@]12OC(C)=O [PMA, phorbol-12-myristate13-acetate]
- induction of lytic EBV-infection via expression of the lytic EBV-immediate early protein ZEBRA: resulted in the induction of lytic EBV-infection
